The values below are quoted from earlier work in US8506359B2, “Aqueous dispersion for chemical mechanical polishing and chemical mechanical polishing method” (JSR Corporation, priority 2008, dated 2013).

SMILES strings stand for the structures.

The pKa is the negative logarithm of the acid dissociation constant.

The conditions of this data set: 25° C.; second carboxyl group for two carboxyl groups, third carboxyl group for three or more.
Regarding `O=C(O)C1CCCCCCC1C(=O)O` (stereo not drawn) [1,2-Cyclooctanedicarboxylic acid (cis), 1,2-Cyclooctanedicarboxylic acid], the pKa was 7.34.
For `O=C(O)C1CCCC1C(=O)O` (stereo not drawn) [1,2-Cyclopentanedicarboxylic acid (cis), 1,2-Cyclopentanedicarboxylic acid], the pKa is 6.57.
For the compound `O=C(O)C1CCCCCC1C(=O)O` (stereo not drawn) [1,2-Cycloheptanedicarboxylic acid (trans)], the pKa is reported as 6.18.
On to `O=C(O)C1CCCCCC1C(=O)O` (stereo not drawn) [1,2-Cycloheptanedicarboxylic acid (cis), 1,2-Cycloheptanedicarboxylic acid], for which the pKa is 7.60.
For `O=C(O)C1CCCC1C(=O)O` (stereo not drawn) [1,2-Cyclopentanedicarboxylic acid (trans)], the pKa is 5.99.
`O=C(O)C1CCCCCCC1C(=O)O` (stereo not drawn) [1,2-Cyclooctanedicarboxylic acid (trans), 1,2-Cyclooctanedicarboxylic acid]: the pKa is reported as 6.24.
